Experimental data: patent US6569847B1, “Substituted azetidin-2-ones as cysteine protease inhibitors” (NAEJA Pharmaceuticals Inc., priority 1999, dated 2003)

Experiments:
[1] = biological target: Cathepsin B (Homo sapiens, UniProt P07858); assay: Assay Procedure for Cathepsin B (fluorogenic substrate N-CBZ-Phe-Arg-AMC); assay type: biochemical; settings: r Cathepsin B, pH 5.1, 10 min preincubation; read-out: CatB IC50
Protocol: Assay Procedure for Cathepsin B
To 170 μl of enzyme-buffer mixture (r Cathepsin B diluted to give approx. 30 F units/min, buffer: 56 mM Na acetate, 1.124 mM EDTA, 10 mM DTT, pH 5.1), 10 μl of inhibitor (dissolved in 100% DMSO ) was added.
After 10 min of incubation at mom temperature 20 μl of 5 mM substrate (N-CBZ-Phe-Arg-AMC, dissolved in DMSO ) was added to initiate reaction. Reading is followed for 10 min at the Fluoroscan reader (excitation at 380 nm, emission at 460 nm).
(§1) A plot of percentage of inhibition vs inhibitor concentration is obtained, and the IC50 is determined using a linear regression calculation (concentration of inhibitor which will give 50% inhibition).

[2] = biological target: Cathepsin L (Homo sapiens, UniProt P07711); assay: Assay Procedure for Cathepsin L (fluorogenic substrate N-CBZ-Phe-Arg-AMC); assay type: biochemical; settings: r Cathepsin L, pH 5.0, 10 min preincubation; read-out: CatL IC50
Protocol: Assay Procedure for Cathepsin L
To 170 μl of an enzyme-buffer mixture (enzyme: r Cathepsin L, diluted to give 25 F units/min, buffer: 58.8 mM Na citrate, 1.18 mM EDTA, 235 mM sodium chloride, 10 mM DTT, pH 5.0), 10 μl of an inhibitor (dissolved in 100% DMSO ) was added.
After 10 min of incubation at room temperature 20 μl of 1 mM substrate (N-CBZ-Phe-Arg-AMC) dissolved in DMSO was added to initiate the reaction. Reading was for 10 min at the Fluoroscan reader (excitation at 380 nm, emission at 460 nm).
as §1

[3] = biological target: T1, Cathepsin K (Homo sapiens, UniProt P43235); assay: Assay Procedure for Cathepsin K (fluorogenic substrate N-CBZ-Phe-Arg-AMC); assay type: biochemical; settings: r Cathepsin K, pH 5.5, 10 min preincubation; read-out: CatK IC50
T1 sequence (P43235 115-329): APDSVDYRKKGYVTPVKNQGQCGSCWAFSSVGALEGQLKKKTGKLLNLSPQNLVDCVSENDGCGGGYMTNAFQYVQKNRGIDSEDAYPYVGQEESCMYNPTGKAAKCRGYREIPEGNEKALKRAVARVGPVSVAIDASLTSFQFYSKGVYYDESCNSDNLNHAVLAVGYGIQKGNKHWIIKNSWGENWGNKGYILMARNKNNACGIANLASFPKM
Protocol: Assay Procedure for Cathepsin K
To 170 μl of enzyme-buffer mixture (r Cathepsin K diluted to give approx. 30 F units/min. Buffer: 100 mM sodium acetate, 5 mM EDTA, 20 mM L-Cysteine, 0.01% Brij , pH 5.5), 10 μl of inhibitor (dissolved in 100% DMSO) was added.
After 10 min of incubation at room temperature 20 μl of 2.7 mM substrate (N-CBZ-Phe-Arg-AMC, dissolved in DMSO) was added to initiate reaction. Reading is followed for 10 min at the Fluoroscan II plate reader (excitation at 380 nm, emission at 460 nm).
as §1

[4] = biological target: Cathepsin S (Homo sapiens, UniProt P25774); assay: Assay Procedure for Cathepsin S (fluorogenic substrate CBZ-Val-Val-Arg-AMC); assay type: biochemical; settings: r Cathepsin S, pH 6.5, 10 min preincubation; read-out: CatS IC50
Protocol: Assay Procedure for Cathepsin S
To 170 μl of enzyme-buffer mixture (r Cathepsin S diluted to give approx. 30 F unis/min, buffer: 100 mM sodium phosphate, 1 mM EDTA, 5 mM DTT ,0.01% Brij, pH 6.5.), 10 μl of inhibitor (dissolved in 100% DMSO) was added.
After 10 min of incubation at room temperature 20 μl of 1.2 mM substrate (CBZ-Val-Val-Arg-AMC, dissolved in DMSO) was added to initiate reaction. Reading is followed for 10 min at the Fluoroscan II plate reader (excitation at 380 nm, emission at 460 nm).
as §1

Chain of Cathepsin S (P25774 115-331, species assumed): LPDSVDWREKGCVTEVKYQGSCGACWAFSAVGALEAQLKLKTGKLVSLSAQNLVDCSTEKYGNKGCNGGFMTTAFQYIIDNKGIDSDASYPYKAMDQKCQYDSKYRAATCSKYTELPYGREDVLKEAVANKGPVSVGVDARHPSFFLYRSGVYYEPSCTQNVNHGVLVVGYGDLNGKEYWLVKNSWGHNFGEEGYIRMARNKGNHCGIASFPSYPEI
Chain of Cathepsin L (P07711 114-333, species assumed): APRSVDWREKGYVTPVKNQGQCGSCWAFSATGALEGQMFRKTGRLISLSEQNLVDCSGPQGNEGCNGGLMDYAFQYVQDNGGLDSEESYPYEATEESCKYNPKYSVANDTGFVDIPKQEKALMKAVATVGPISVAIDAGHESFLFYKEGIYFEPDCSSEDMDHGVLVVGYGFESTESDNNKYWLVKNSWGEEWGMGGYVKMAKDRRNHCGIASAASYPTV

Structure (SMILES)	IC50 [1] [nM]	IC50 [2] [nM]	IC50 [3] [nM]	IC50 [4] [nM]	melting point [°C]
CC(=O)O[C@@H]1NC(=O)[C@@]1(C)NC(=O)[C@H](Cc1ccccc1)NC(=O)CCc1ccccc1 [Example 4, (3S,4S)-3-[2S-2-(3-phenylpropionyl)-amino-2-benzyl]-acetamido-3-methyl-4-acetoxy azetidine-2-one]	10000	1910	1140	98	163 to 164
C[C@@]1(NC(=O)[C@H](CC2CCCCC2)NC(=O)CCCCCNC(=NC(=O)OCc2ccccc2)NC(=O)OCc2ccccc2)C(=O)N[C@H]1Oc1ccccc1 [Example 7, (3S,4S)-3-[2S-2-(6-N, N-dibenzyloxycarbonylguanidinohexanoyl)-amino-2-cyclohexylmethyl]-acetamido-3-methyl-4-phenoxy-azetidine-2-one]	26200	32500	32500	20	–
CC(C)(C)OC(=O)N[C@@H](Cc1cccnc1)C(=O)N[C@]1(C)C(=O)N[C@H]1Oc1ccccc1 [Example 12]	11300	2270	7740	1800	109 to 110
CC(C)(C)OC(=O)N[C@@H](Cc1cccnc1)C(=O)N[C@]1(C)C(=O)N[C@@H]1Oc1ccccc1 [Example 14]	360	450	1340	50	–
C[C@@]1(NC(=O)[C@H](Cc2ccccc2)NC(=O)CCc2ccccc2)C(=O)N[C@H]1Oc1cccc(C(=O)OC(c2ccccc2)c2ccccc2)c1 [Example 18, (3S,4S)-3-[2S-2-(3-phenylpropionyl)-amino-2-benzyl]-acetamido-3-methyl-4-(3-diphenylmethoxycarbonyl)-phenoxy azetidine-2-one]	> 36600	7330	7300	690	–
